US10681909B2, “Herbicidal triazoles” (FMC Corporation, priority 2014, dated 2020)

Tests used:
nutsedge, yellow = test: Test C postemergence; format: in vivo, Cyperus esculentus
Procedure, shortened: (§1)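 Surfactant-containing, non-phytotoxic solvent formulations of each compound were applied either preemergence to seeds in a loam soil–sand blend or postemergence to plants 2 to 18 cm tall (1- to 4-leaf stage). Postemergence plants were grown in peat moss–vermiculite medium.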

barnyardgrass [1] = test: Test B flooded paddy test; format: in vivo, Echinochloa crus-galli; conditions: 250 g ai/ha, applied to paddy water at 2-leaf stage, visual rating after 13 to 15 d, scale 0 (no effect) to 100 (complete control)
Procedure, shortened: (§2)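 Pots were flooded to 3 cm above the soil at treatment, and compounds were applied directly into the paddy water. That depth was held throughout. After 13 to 15 d in a greenhouse, plants were rated visually against untreated controls.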

chickweed = test: Test C postemergence; format: in vivo, Stellaria media
Procedure, shortened: as §1

oat, wild = test: Test C postemergence; format: in vivo, Avena fatua
Procedure, shortened: as §1

crabgrass, large = test: Test C postemergence; format: in vivo, Digitaria sanguinalis
Procedure, shortened: as §1

velvetleaf = test: Test C postemergence; format: in vivo, Abutilon theophrasti
Procedure, shortened: as §1

morningglory = test: Test C postemergence; format: in vivo, Ipomoea coccinea
Procedure, shortened: as §1

pigweed [2] = test: Test C postemergence; format: in vivo, Amaranthus retroflexus
Procedure, shortened: as §1

rice = test: Test B flooded paddy test; format: in vivo, Oryza sativa; conditions: 250 g ai/ha, applied to paddy water at 2-leaf stage, visual rating after 13 to 15 d, scale 0 (no effect) to 100 (complete control)
Procedure, shortened: as §2

barnyardgrass [3] = test: Test A postemergence; format: in vivo, Echinochloa crus-galli; conditions: 0 to 100 scale (0 no effect, 100 complete control), approx. 10 d
Procedure, shortened: (§3)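 Test chemicals, formulated in a surfactant-containing non-phytotoxic solvent mixture, are applied either as a directed soil spray to newly planted seeds or as a postemergence application to plants at the one- to two-leaf stage (2–10 cm). All plants grow in a loam soil and sand blend.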

wheat (winter wheat) = test: Test C postemergence; format: in vivo, Triticum aestivum
Procedure, shortened: as §1

corn = test: Test A postemergence; format: in vivo, Zea mays; conditions: 0 to 100 scale (0 no effect, 100 complete control), approx. 10 d
Procedure, shortened: as §3

ragweed = test: Test C postemergence; format: in vivo, Ambrosia elatior
Procedure, shortened: as §1

oilseed rape = test: Test C postemergence; format: in vivo, Brassica napus
Procedure, shortened: as §1

foxtail, giant [4] = test: Test C postemergence; format: in vivo, Setaria faberii
Procedure, shortened: as §1

johnsongrass = test: Test C postemergence; format: in vivo, Sorghum halepense
Procedure, shortened: as §1

foxtail, giant [5] = test: Test A preemergence; format: in vivo, Setaria faberii; conditions: 0 to 100 scale (0 no effect, 100 complete control)
Procedure, shortened: as §3

kochia = test: Test C postemergence; format: in vivo, Kochia scoparia
Procedure, shortened: as §1

pigweed [6] = test: Test A postemergence; format: in vivo, Amaranthus retroflexus; conditions: 0 to 100 scale (0 no effect, 100 complete control), approx. 10 d
Procedure, shortened: as §3

lambsquarters = test: Test C postemergence; format: in vivo, Chenopodium album
Procedure, shortened: as §1

SMILES: CCCOc1nc(-c2ccccc2)nn1Cc1ccnc(C(F)(F)F)c1 [Compound 33]
- Plant response rating (scale of 0 to 100 where 0 is no effect and 100 is complete control) (nutsedge, yellow; 31 g ai/ha): 5
- Plant response rating (scale of 0 to 100 where 0 is no effect and 100 is complete control) (nutsedge, yellow; 62 g ai/ha): 10
- Plant response rating (scale of 0 to 100 where 0 is no effect and 100 is complete control) (nutsedge, yellow; 125 g ai/ha): 10
- Plant response rating (scale of 0 to 100 where 0 is no effect and 100 is complete control) (nutsedge, yellow; 250 g ai/ha): 15
- Plant response rating, Barnyardgrass, Flood (barnyardgrass [1]): 0
- Plant response rating (scale of 0 to 100 where 0 is no effect and 100 is complete control) (chickweed; 31 g ai/ha): 55
- Plant response rating (scale of 0 to 100 where 0 is no effect and 100 is complete control) (chickweed; 62 g ai/ha): 60
- Plant response rating (scale of 0 to 100 where 0 is no effect and 100 is complete control) (chickweed; 125 g ai/ha): 60
- Plant response rating (scale of 0 to 100 where 0 is no effect and 100 is complete control) (chickweed; 250 g ai/ha): 80
- Plant response rating (scale of 0 to 100 where 0 is no effect and 100 is complete control) (oat, wild; 31 g ai/ha): 10
- Plant response rating (scale of 0 to 100 where 0 is no effect and 100 is complete control) (oat, wild; 62 g ai/ha): 10
- Plant response rating (scale of 0 to 100 where 0 is no effect and 100 is complete control) (oat, wild; 125 g ai/ha): 20
- Plant response rating (scale of 0 to 100 where 0 is no effect and 100 is complete control) (oat, wild; 250 g ai/ha): 25
- Plant response rating (scale of 0 to 100 where 0 is no effect and 100 is complete control) (crabgrass, large; 31 g ai/ha): 5
- Plant response rating (scale of 0 to 100 where 0 is no effect and 100 is complete control) (crabgrass, large; 62 g ai/ha): 10
- Plant response rating (scale of 0 to 100 where 0 is no effect and 100 is complete control) (crabgrass, large; 125 g ai/ha): 10
- Plant response rating (scale of 0 to 100 where 0 is no effect and 100 is complete control) (crabgrass, large; 250 g ai/ha): 15
- Plant response rating (scale of 0 to 100 where 0 is no effect and 100 is complete control) (velvetleaf; 31 g ai/ha): 15
- Plant response rating (scale of 0 to 100 where 0 is no effect and 100 is complete control) (velvetleaf; 62 g ai/ha): 15
- Plant response rating (scale of 0 to 100 where 0 is no effect and 100 is complete control) (velvetleaf; 125 g ai/ha): 10
- Plant response rating (scale of 0 to 100 where 0 is no effect and 100 is complete control) (velvetleaf; 250 g ai/ha): 40
- Plant response rating (scale of 0 to 100 where 0 is no effect and 100 is complete control) (morningglory; 31 g ai/ha): 55
- Plant response rating (scale of 0 to 100 where 0 is no effect and 100 is complete control) (morningglory; 62 g ai/ha): 80
- Plant response rating (scale of 0 to 100 where 0 is no effect and 100 is complete control) (morningglory; 125 g ai/ha): 85
- Plant response rating (scale of 0 to 100 where 0 is no effect and 100 is complete control) (morningglory; 250 g ai/ha): 75
- Plant response rating (scale of 0 to 100 where 0 is no effect and 100 is complete control) (pigweed [2]; 31 g ai/ha): 95
- Plant response rating (scale of 0 to 100 where 0 is no effect and 100 is complete control) (pigweed [2]; 62 g ai/ha): 90
- Plant response rating (scale of 0 to 100 where 0 is no effect and 100 is complete control) (pigweed [2]; 125 g ai/ha): 98
- Plant response rating (scale of 0 to 100 where 0 is no effect and 100 is complete control) (pigweed [2]; 250 g ai/ha): 98
- Plant response rating, Rice, Flood (rice): 0
- Plant response rating, Barnyardgrass (barnyardgrass [3]; 125 g ai/ha): 20
- Plant response rating, Barnyardgrass (barnyardgrass [3]; 500 g ai/ha): 50
- Plant response rating (scale of 0 to 100 where 0 is no effect and 100 is complete control) (wheat (winter wheat); 31 g ai/ha): 5
- Plant response rating (scale of 0 to 100 where 0 is no effect and 100 is complete control) (wheat (winter wheat); 62 g ai/ha): 5
- Plant response rating (scale of 0 to 100 where 0 is no effect and 100 is complete control) (wheat (winter wheat); 125 g ai/ha): 5
- Plant response rating (scale of 0 to 100 where 0 is no effect and 100 is complete control) (wheat (winter wheat); 250 g ai/ha): 5
- Plant response rating, Corn (corn; 125 g ai/ha): 20
- Plant response rating, Corn (corn; 500 g ai/ha): 30
- Plant response rating (scale of 0 to 100 where 0 is no effect and 100 is complete control) (ragweed; 31 g ai/ha): 35
- Plant response rating (scale of 0 to 100 where 0 is no effect and 100 is complete control) (ragweed; 62 g ai/ha): 35
- Plant response rating (scale of 0 to 100 where 0 is no effect and 100 is complete control) (ragweed; 125 g ai/ha): 40
- Plant response rating (scale of 0 to 100 where 0 is no effect and 100 is complete control) (ragweed; 250 g ai/ha): 75
- Plant response rating (scale of 0 to 100 where 0 is no effect and 100 is complete control) (oilseed rape; Oilsee Rape, 250 g ai/ha): 60
- Plant response rating (scale of 0 to 100 where 0 is no effect and 100 is complete control) (oilseed rape; Oilseed Rape, 31 g ai/ha): 40
- Plant response rating (scale of 0 to 100 where 0 is no effect and 100 is complete control) (oilseed rape; Oilseed Rape, 62 g ai/ha): 55
- Plant response rating (scale of 0 to 100 where 0 is no effect and 100 is complete control) (oilseed rape; Oilseed Rape, 125 g ai/ha): 80
- Plant response rating (scale of 0 to 100 where 0 is no effect and 100 is complete control) (foxtail, giant [4]; 31 g ai/ha): 10
- Plant response rating (scale of 0 to 100 where 0 is no effect and 100 is complete control) (foxtail, giant [4]; 62 g ai/ha): 10
- Plant response rating (scale of 0 to 100 where 0 is no effect and 100 is complete control) (foxtail, giant [4]; 125 g ai/ha): 15
- Plant response rating (scale of 0 to 100 where 0 is no effect and 100 is complete control) (foxtail, giant [4]; 250 g ai/ha): 15
- Plant response rating (scale of 0 to 100 where 0 is no effect and 100 is complete control) (johnsongrass; 31 g ai/ha): 5
- Plant response rating (scale of 0 to 100 where 0 is no effect and 100 is complete control) (johnsongrass; 62 g ai/ha): 5
- Plant response rating (scale of 0 to 100 where 0 is no effect and 100 is complete control) (johnsongrass; 125 g ai/ha): 10
- Plant response rating (scale of 0 to 100 where 0 is no effect and 100 is complete control) (johnsongrass; 250 g ai/ha): 15
- Plant response rating, Foxtail, Giant (foxtail, giant [5]; 125 g ai/ha): 90
- Plant response rating, Foxtail, Giant (foxtail, giant [5]; 500 g ai/ha, approx. 10 d): 100
- Plant response rating (scale of 0 to 100 where 0 is no effect and 100 is complete control) (kochia; 31 g ai/ha): 90
- Plant response rating (scale of 0 to 100 where 0 is no effect and 100 is complete control) (kochia; 62 g ai/ha): 90
- Plant response rating (scale of 0 to 100 where 0 is no effect and 100 is complete control) (kochia; 125 g ai/ha): 90
- Plant response rating (scale of 0 to 100 where 0 is no effect and 100 is complete control) (kochia; 250 g ai/ha): 90
- Plant response rating, Pigweed (pigweed [6]; 125 g ai/ha): 100
- Plant response rating, Pigweed (pigweed [6]; 500 g ai/ha): 100
- Plant response rating (scale of 0 to 100 where 0 is no effect and 100 is complete control) (lambsquarters; 31 g ai/ha): 80
- Plant response rating (scale of 0 to 100 where 0 is no effect and 100 is complete control) (lambsquarters; 62 g ai/ha): 85
- Plant response rating (scale of 0 to 100 where 0 is no effect and 100 is complete control) (lambsquarters; 125 g ai/ha): 85
- Plant response rating (scale of 0 to 100 where 0 is no effect and 100 is complete control) (lambsquarters; 250 g ai/ha): 90
